According to patent publication US11076595B2, “1-(n,n-disubstituted carbamoyl) 4-(substituted sulfonyl)triazolin-5-one derivative, 4-(n,n-disubstituted carbamoyl) 1-(substituted sulfonyl)triazolin-5-one derivative, and herbicide containing said derivative as active ingredient” (HOKKO CHEMICAL INDUSTRY CO., LTD., priority 2017, dated 2021):

Legend:
Type in all cases: in vivo
Lindernia pyxidaria [1] = experiment: Test Example 11: herbicidal effect test by soil treatment in paddy field; conditions: 120 g/10a active ingredient, 14 days after treatment
Outline: (§1)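 Dry weight at day 14 relative to untreated controls gives the suppression rate; duplicate pots. Treatment: 120 g a.i./10 are into paddy water at sowing.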

Scirpus juncoides [2] = experiment: as above; conditions: 120 g/10a active ingredient, 14 days after treatment
Outline: as §1

Echinochloa crus-galli [3] = experiment: as above; conditions: 120 g/10a active ingredient, 14 days after treatment
Outline: as §1

Monochoria vaginalis [4] = experiment: as above; conditions: 120 g/10a active ingredient, 14 days after treatment
Outline: as §1

Lindernia pyxidaria [5] = experiment: Test Example 12: herbicidal effect test by treatment during growing period in paddy field; conditions: 120 g/10a; treatment seven days after sowing in flooded paddy pot; assessed 14 days after treatment
Method: (§2) This test was performed with two replications per one formulation concentration plot, and 14 days after the formulation treatments, the weed suppression rate (%) was determined according to the following equation (Math. 2). Weed suppression rate (%)=(1−average dry weight (g) of plants in treated plots/average dry weight (g) of plants in untreated plots)×100 [Math. 2]
(§3) A Wagner pot having an area of 1/10000 are was filled with paddy field soil and after adding water, a chemical fertilizer (N:P:K=17:17:17) was mixed, followed by puddling. Thereafter, 30 grains of each of Echinochloa crus-galli, broad-leaved weed (Lindernia pyxidaria, Monochoria vaginalis) and Scirpus juncoides seeds were sown to a depth of 0 to 1 cm. Immediately after the sowing, the pot was flooded, and the depth of water was kept at about 3 cm. The pot was subsequently managed in a glass greenhouse. Seven Days after sowing, an emulsifiable concentrate prepared according to Formulation Example 15 by using the compound shown in Table 10 below was diluted with water, and a predetermined amount of the water-diluted formulation was added dropwise. The application rate of the active ingredient, by conversion, corresponded to 120 g per 10 are. The test was performed with two replications per one formulation concentration plot, and 14 days after the formulation treatments, the weed suppression rate (%) was determined according to the equation (Math. 2).

Scirpus juncoides [6] = experiment: as above; conditions: 120 g/10a; treatment seven days after sowing in flooded paddy pot; assessed 14 days after treatment
Method: as §2, §3

Echinochloa crus-galli [7] = experiment: as above; conditions: 120 g/10a; treatment seven days after sowing in flooded paddy pot; assessed 14 days after treatment
Method: as §2, §3

Monochoria vaginalis [8] = experiment: as above; conditions: 120 g/10a; treatment seven days after sowing in flooded paddy pot; assessed 14 days after treatment
Method: as §2, §3

CC(C)N(C(=O)n1cnn(S(=O)(=O)c2cccs2)c1=O)c1ccc(C(F)(F)F)cc1Cl [Compound 11-1042]
Weed suppression rate (%) Lindemia pyxidaria (Lindernia pyxidaria [1]): 80%
Weed suppression rate (%) Scirpus juncoides (Scirpus juncoides [2]): 90%
Weed suppression rate (%) Echinochloa crus-galli (Echinochloa crus-galli [3]): 90%
Weed suppression rate (%) Monochoria vaginalis (Monochoria vaginalis [4]): 80%
Weed suppression rate (%) Lindemia pyxidaria (Lindernia pyxidaria [5]): 80%
Weed suppression rate (%) Scirpus juncoides (Scirpus juncoides [6]): 90%
Weed suppression rate (%) Echinochloa crus-galli (Echinochloa crus-galli [7]): 90%
Weed suppression rate (%) Monochoria vaginalis (Monochoria vaginalis [8]): 80%

CN(C(=O)n1cnn(S(C)(=O)=O)c1=O)c1ccc(F)cc1F [Compound 11-1125]
Weed suppression rate (%) Lindemia pyxidaria (Lindernia pyxidaria [1]): 60%
Weed suppression rate (%) Scirpus juncoides (Scirpus juncoides [2]): 60%
Weed suppression rate (%) Echinochloa crus-galli (Echinochloa crus-galli [3]): 90%
Weed suppression rate (%) Monochoria vaginalis (Monochoria vaginalis [4]): 60%
Weed suppression rate (%) Lindemia pyxidaria (Lindernia pyxidaria [5]): 70%
Weed suppression rate (%) Scirpus juncoides (Scirpus juncoides [6]): 30%
Weed suppression rate (%) Echinochloa crus-galli (Echinochloa crus-galli [7]): 90%
Weed suppression rate (%) Monochoria vaginalis (Monochoria vaginalis [8]): 60%

CCS(=O)(=O)n1ncn(C(=O)N(C)c2ccc(F)cc2F)c1=O [Compound 11-1126]
Weed suppression rate (%) Lindemia pyxidaria (Lindernia pyxidaria [1]): 90%
Weed suppression rate (%) Scirpus juncoides (Scirpus juncoides [2]): 100%
Weed suppression rate (%) Echinochloa crus-galli (Echinochloa crus-galli [3]): 100%
Weed suppression rate (%) Monochoria vaginalis (Monochoria vaginalis [4]): 70%
Weed suppression rate (%) Lindemia pyxidaria (Lindernia pyxidaria [5]): 70%
Weed suppression rate (%) Scirpus juncoides (Scirpus juncoides [6]): 100%
Weed suppression rate (%) Echinochloa crus-galli (Echinochloa crus-galli [7]): 100%
Weed suppression rate (%) Monochoria vaginalis (Monochoria vaginalis [8]): 70%

Cc1ccc(S(=O)(=O)n2ncn(C(=O)N(c3cccc(F)c3F)C(C)C)c2=O)cc1 [Compound 11-636]
Weed suppression rate (%) Lindemia pyxidaria (Lindernia pyxidaria [1]): 100%
Weed suppression rate (%) Scirpus juncoides (Scirpus juncoides [2]): 90%
Weed suppression rate (%) Echinochloa crus-galli (Echinochloa crus-galli [3]): 100%
Weed suppression rate (%) Monochoria vaginalis (Monochoria vaginalis [4]): 100%
Weed suppression rate (%) Lindemia pyxidaria (Lindernia pyxidaria [5]): 80%
Weed suppression rate (%) Scirpus juncoides (Scirpus juncoides [6]): 100%
Weed suppression rate (%) Echinochloa crus-galli (Echinochloa crus-galli [7]): 100%
Weed suppression rate (%) Monochoria vaginalis (Monochoria vaginalis [8]): 100%

CC(C)N(C(=O)n1cnn(S(=O)(=O)C2CCCCC2)c1=O)c1ccc(C(F)(F)F)cc1Cl [Compound 11-314]
Weed suppression rate (%) Lindemia pyxidaria (Lindernia pyxidaria [1]): 80%
Weed suppression rate (%) Scirpus juncoides (Scirpus juncoides [2]): 90%
Weed suppression rate (%) Echinochloa crus-galli (Echinochloa crus-galli [3]): 90%
Weed suppression rate (%) Monochoria vaginalis (Monochoria vaginalis [4]): 80%
Weed suppression rate (%) Lindemia pyxidaria (Lindernia pyxidaria [5]): 80%
Weed suppression rate (%) Scirpus juncoides (Scirpus juncoides [6]): 90%
Weed suppression rate (%) Echinochloa crus-galli (Echinochloa crus-galli [7]): 90%
Weed suppression rate (%) Monochoria vaginalis (Monochoria vaginalis [8]): 80%

Cc1cc(N(C(=O)n2cnn(S(=O)(=O)C(C)C)c2=O)C(C)C)no1 [Compound 11-91]
Weed suppression rate (%) Lindemia pyxidaria (Lindernia pyxidaria [1]): 80%
Weed suppression rate (%) Scirpus juncoides (Scirpus juncoides [2]): 90%
Weed suppression rate (%) Echinochloa crus-galli (Echinochloa crus-galli [3]): 90%
Weed suppression rate (%) Monochoria vaginalis (Monochoria vaginalis [4]): 80%
Weed suppression rate (%) Lindemia pyxidaria (Lindernia pyxidaria [5]): 80%
Weed suppression rate (%) Scirpus juncoides (Scirpus juncoides [6]): 90%
Weed suppression rate (%) Echinochloa crus-galli (Echinochloa crus-galli [7]): 90%
Weed suppression rate (%) Monochoria vaginalis (Monochoria vaginalis [8]): 80%

Cc1cc(C)c(S(=O)(=O)n2ncn(C(=O)N(c3cccc(F)c3)C(C)C)c2=O)c(C)c1 [Compound 11-854]
Weed suppression rate (%) Lindemia pyxidaria (Lindernia pyxidaria [1]): 90%
Weed suppression rate (%) Scirpus juncoides (Scirpus juncoides [2]): 90%
Weed suppression rate (%) Echinochloa crus-galli (Echinochloa crus-galli [3]): 100%
Weed suppression rate (%) Monochoria vaginalis (Monochoria vaginalis [4]): 80%
Weed suppression rate (%) Lindemia pyxidaria (Lindernia pyxidaria [5]): 90%
Weed suppression rate (%) Scirpus juncoides (Scirpus juncoides [6]): 80%
Weed suppression rate (%) Echinochloa crus-galli (Echinochloa crus-galli [7]): 80%
Weed suppression rate (%) Monochoria vaginalis (Monochoria vaginalis [8]): 90%

CC(C)N(C(=O)n1cnn(S(=O)(=O)c2cccc(Cl)c2)c1=O)c1c(F)cc(F)cc1F [Compound 11-554]
Weed suppression rate (%) Lindemia pyxidaria (Lindernia pyxidaria [1]): 90%
Weed suppression rate (%) Scirpus juncoides (Scirpus juncoides [2]): 70%
Weed suppression rate (%) Echinochloa crus-galli (Echinochloa crus-galli [3]): 100%
Weed suppression rate (%) Monochoria vaginalis (Monochoria vaginalis [4]): 70%
Weed suppression rate (%) Lindemia pyxidaria (Lindernia pyxidaria [5]): 80%
Weed suppression rate (%) Scirpus juncoides (Scirpus juncoides [6]): 90%
Weed suppression rate (%) Echinochloa crus-galli (Echinochloa crus-galli [7]): 80%
Weed suppression rate (%) Monochoria vaginalis (Monochoria vaginalis [8]): 80%

Cc1ccc(N(C(=O)n2cnn(S(=O)(=O)c3ccccc3Cl)c2=O)C(C)C)c(F)c1 [Compound 11-526]
Weed suppression rate (%) Lindemia pyxidaria (Lindernia pyxidaria [1]): 80%
Weed suppression rate (%) Scirpus juncoides (Scirpus juncoides [2]): 90%
Weed suppression rate (%) Echinochloa crus-galli (Echinochloa crus-galli [3]): 90%
Weed suppression rate (%) Monochoria vaginalis (Monochoria vaginalis [4]): 80%
Weed suppression rate (%) Lindemia pyxidaria (Lindernia pyxidaria [5]): 80%
Weed suppression rate (%) Scirpus juncoides (Scirpus juncoides [6]): 90%
Weed suppression rate (%) Echinochloa crus-galli (Echinochloa crus-galli [7]): 90%
Weed suppression rate (%) Monochoria vaginalis (Monochoria vaginalis [8]): 80%

CC(C)N(C(=O)n1cnn(S(=O)(=O)c2ccc(Cl)cc2)c1=O)c1ccc(F)c(F)c1F [Compound 11-591]
Weed suppression rate (%) Lindemia pyxidaria (Lindernia pyxidaria [1]): 90%
Weed suppression rate (%) Scirpus juncoides (Scirpus juncoides [2]): 60%
Weed suppression rate (%) Echinochloa crus-galli (Echinochloa crus-galli [3]): 100%
Weed suppression rate (%) Monochoria vaginalis (Monochoria vaginalis [4]): 70%
Weed suppression rate (%) Lindemia pyxidaria (Lindernia pyxidaria [5]): 70%
Weed suppression rate (%) Scirpus juncoides (Scirpus juncoides [6]): 100%
Weed suppression rate (%) Echinochloa crus-galli (Echinochloa crus-galli [7]): 60%
Weed suppression rate (%) Monochoria vaginalis (Monochoria vaginalis [8]): 70%

COc1ccc(S(=O)(=O)n2ncn(C(=O)N(c3ccc(F)c(F)c3F)C(C)C)c2=O)cc1 [Compound 11-1153]
Weed suppression rate (%) Lindemia pyxidaria (Lindernia pyxidaria [1]): 100%
Weed suppression rate (%) Scirpus juncoides (Scirpus juncoides [2]): 60%
Weed suppression rate (%) Echinochloa crus-galli (Echinochloa crus-galli [3]): 100%
Weed suppression rate (%) Monochoria vaginalis (Monochoria vaginalis [4]): 90%
Weed suppression rate (%) Lindemia pyxidaria (Lindernia pyxidaria [5]): 70%
Weed suppression rate (%) Scirpus juncoides (Scirpus juncoides [6]): 90%
Weed suppression rate (%) Echinochloa crus-galli (Echinochloa crus-galli [7]): 100%
Weed suppression rate (%) Monochoria vaginalis (Monochoria vaginalis [8]): 100%

CC(C)N(C(=O)n1cnn(S(=O)(=O)c2ccc(F)cc2)c1=O)c1ccc(F)c(F)c1F [Compound 11-478]
Weed suppression rate (%) Lindemia pyxidaria (Lindernia pyxidaria [1]): 100%
Weed suppression rate (%) Scirpus juncoides (Scirpus juncoides [2]): 100%
Weed suppression rate (%) Echinochloa crus-galli (Echinochloa crus-galli [3]): 100%
Weed suppression rate (%) Monochoria vaginalis (Monochoria vaginalis [4]): 100%
Weed suppression rate (%) Lindemia pyxidaria (Lindernia pyxidaria [5]): 70%
Weed suppression rate (%) Scirpus juncoides (Scirpus juncoides [6]): 100%
Weed suppression rate (%) Echinochloa crus-galli (Echinochloa crus-galli [7]): 100%
Weed suppression rate (%) Monochoria vaginalis (Monochoria vaginalis [8]): 90%

CC(C)N(C(=O)n1cnn(S(=O)(=O)c2cccs2)c1=O)c1ccc(C#N)cc1Cl [Compound 11-1044]
Weed suppression rate (%) Lindemia pyxidaria (Lindernia pyxidaria [1]): 90%
Weed suppression rate (%) Scirpus juncoides (Scirpus juncoides [2]): 90%
Weed suppression rate (%) Echinochloa crus-galli (Echinochloa crus-galli [3]): 90%
Weed suppression rate (%) Monochoria vaginalis (Monochoria vaginalis [4]): 90%
Weed suppression rate (%) Lindemia pyxidaria (Lindernia pyxidaria [5]): 80%
Weed suppression rate (%) Scirpus juncoides (Scirpus juncoides [6]): 90%
Weed suppression rate (%) Echinochloa crus-galli (Echinochloa crus-galli [7]): 90%
Weed suppression rate (%) Monochoria vaginalis (Monochoria vaginalis [8]): 80%

Cc1cc(C)c(S(=O)(=O)n2ncn(C(=O)N(c3c(F)cc(F)cc3F)C(C)C)c2=O)c(C)c1 [Compound 11-867]
Weed suppression rate (%) Lindemia pyxidaria (Lindernia pyxidaria [1]): 100%
Weed suppression rate (%) Scirpus juncoides (Scirpus juncoides [2]): 80%
Weed suppression rate (%) Echinochloa crus-galli (Echinochloa crus-galli [3]): 100%
Weed suppression rate (%) Monochoria vaginalis (Monochoria vaginalis [4]): 80%
Weed suppression rate (%) Lindemia pyxidaria (Lindernia pyxidaria [5]): 70%
Weed suppression rate (%) Scirpus juncoides (Scirpus juncoides [6]): 80%
Weed suppression rate (%) Echinochloa crus-galli (Echinochloa crus-galli [7]): 100%
Weed suppression rate (%) Monochoria vaginalis (Monochoria vaginalis [8]): 80%

CC(C)N(C(=O)n1cnn(S(=O)(=O)c2cccc(F)c2)c1=O)c1ccccc1F [Compound 11-428]
Weed suppression rate (%) Lindemia pyxidaria (Lindernia pyxidaria [1]): 90%
Weed suppression rate (%) Scirpus juncoides (Scirpus juncoides [2]): 90%
Weed suppression rate (%) Echinochloa crus-galli (Echinochloa crus-galli [3]): 90%
Weed suppression rate (%) Monochoria vaginalis (Monochoria vaginalis [4]): 90%
Weed suppression rate (%) Lindemia pyxidaria (Lindernia pyxidaria [5]): 90%
Weed suppression rate (%) Scirpus juncoides (Scirpus juncoides [6]): 90%
Weed suppression rate (%) Echinochloa crus-galli (Echinochloa crus-galli [7]): 90%
Weed suppression rate (%) Monochoria vaginalis (Monochoria vaginalis [8]): 90%
